Laboratory results published in patent publication US8093050B2, “mTOR inhibtors and mTOR signaling pathway inhibitors induce differentiation of human embryonic stem cells into the osteoblastic lineage” (Korea Research Institute of Bioscience and Biotechnology, priority 2007, dated 2012).
Entries after “also recorded” stand apart in the source; their conditions may differ.

Experiments:
[1] = system: human embryonic stem cells; experiment: RT-PCR of osteoblast-specific genes, adhesion culture (FIG. 5); type: cell-based; conditions: for expression of osteoblast-specific genes: 10 μM of LY29400, 1 μM of an AKT inhibitor, or rapamycin; for expression level of osteoblastic markers: human embryonic stem cells, LY294002, AKT inhibitor, or 20 nM rapamycin for 5 days
Description: For osteogenic differentiation by adhesion culturing, the human embryonic stem cells obtained in Example 1, after passage, were cultured in the culture medium of Example 1 for 2 days, and then in a culture medium, free of recombinant human FGF basic, […], 0.01˜50 μM LY294002, 0.01˜20 μM AKT inhibitor, or conventional osteogenic supplements (10 mM β-glycerophosphate, 0.1 mM Dexamethasone, 0.1 mM L-ascorbic acid) for […], with daily replacement with a fresh embryonic stem cell culture medium (FIG. 2A).
(§1) The differentiation of human embryonic stem cells into osteoblasts in Example 3 was examined by detecting the expression of osteoblast-specific genes through RT-PCR and quantitative real-time PCR. For this, after treatment or non-treatment with rapamycin, LY294002, an AKT inhibitor or osteogenic supplements (10 mM β-glycerophosphate, 0.1 mM Dexamethasone, and 0.1 mM L-ascorbic acid), cells were collected according to differentiation stages and subjected to total RNA isolation using a TRIzol reagent (Invitrogen, USA). The RNA was used as a template to synthesize cDNA with a oligo(dT) primer in the presence of a Superscript II reverse transcriptase, followed by PCR with various primers listed in Table 1, below.
First, a description is given of the adhesion culture method. […] Afterwards, the human embryonic stem cells are induced to differentiate into osteoblasts by being cultured for five days in a medium that is the same except that it is free of recombinant human FGF basic and is supplemented with LY294002, an AKT inhibitor, rapamycin, and/or conventional osteogenic supplements (10 mM 3-glycerophosphate, 0.1 mM Dexamethasone, and 0.1 mM L-ascorbic acid) (Stage II).

[2] = system: human embryonic stem cell-derived embryoid bodies; experiment: Analysis for mineralization by Alizarin-Red S staining; type: cell-based
Description: The cells obtained using the three differentiation inducing techniques described in Example 3 were analyzed for mineralization using an Alizarin-Red S staining method. After aspirating the culture medium, the cells on the culture dish were washed with PBS and fixed at 4° C. for 1 hr with 70% ethanol. Thereafter, the cells were stained with a 40 mM alizarin red (AR) solution (pH 4.2) for 10 min, washed with distilled water, and observed for mineral nodule formation under an optical microscope before they were completely dried. […] A culture period of three weeks was required to maximize the number of Alizarin Red-positive cells upon osteogenic differentiation with rapamycin alone.

[3] = system: human embryonic stem cell-derived embryoid bodies; experiment: Quantitative real-time PCR of osteoblast-specific genes (FIGS. 7, 8, 11); type: cell-based
Description: (§2) After being collected as a suspension, the cell clumps were transferred into bacterial cell culture dishes and incubated for 5 days in a suspension culture manner. Afterwards, the embryoid bodies thus obtained were transferred to Matrigel (BD biosciences, USA)-coated culture dishes, free of human recombinant FGF basic, containing 0.1˜200 nM rapamycin, 0.01˜50 μM LY294002, 0.01˜20 μM AKT inhibitor, or osteogenic supplements (10 mM β-glycerophosphate, 0.1 mM Dexamethasone, and 0.1 mM L-ascorbic acid) for three weeks in an adhesion culture manner to achieve osteogenic differentiation (FIG. 3A).
as §1
(§3) Osteogenic differentiation using the embryoid body formation method is schematically illustrated in FIG. 3A. Initially, human embryonic stem cells are cultured for one day in the same manner as in the adhesion culture method, after which the colonies thus grown are sliced into cell clumps using a tool made from a glass pipette.

[4] = system: human embryonic stem cells; experiment: Cytotoxicity in differentiation culture; type: cell-based; conditions: for cytotoxicity: 10 μM of LY29400, 1 μM of an AKT inhibitor, or 220 nM of rapamycin
[5] = system: human embryonic stem cell-derived embryoid bodies; experiment: RT-PCR of osteoblast-specific genes, embryoid body formation method (FIG. 6); type: cell-based; conditions: for expression level of osteoblastic markers / expression level of osteoblast-specific genes compared to untreated control: embryoid bodies; for expression level of osteoblastic markers: 20 nM rapamycin for three weeks; for expression level of osteoblast-specific genes compared to untreated control: LY294002 (0-50 μM), AKT inhibitor (0-20 μM), or rapamycin (0-200 nM) for 1~3 weeks; for expression levels of osteoblast-specific genes: embryoid body formation method
Description: as §2, with “[…],” for “0.01˜50 μM LY294002, 0.01˜20 μM AKT inhibitor,”
as §1, §3

[6] = system: human embryonic stem cell-derived embryoid bodies; experiment: Immunofluorescent staining for BSP and osteocalcin; type: cell-based
Description: The osteogenic differentiation of the cells obtained using the three differentiation inducing techniques described in Example was identified by immunofluorescent staining. First, the cells were placed on a 1 cm^2 cover glass and the medium was aspirated. Following washing with PBS, the cells were incubated with a fixing solution (citrate-acetone-formaldehyde) for about 30 sec at room temperature and washed with distilled water for 45 sec. Next, treatment with 3% bovine serum albumin/phosphate buffered saline (BSA/PBS) for 30 min was followed by incubation with a primary antibody for 12 hrs. Then, the cells were washed three times for 15 min in 0.1% Triton X-100/PBS before labeling by incubation with an Alexa488-conjugated secondary antibody (Molecular probes, USA) for 30 min at room temperature. The cells were washed again three times in 0.1% Triton X-100/PBS for 15 min each time for observation under a fluorescent microscope (Olympus, Japan). In order to identify osteogenic differentiation, anti-bone sialoprotein (anti-BSP, Chemicon; 1:100), and anti-osteocalcin (R&D Systems; 1:500) were used for immunofluorescence.

PI3K = conditions: cited from earlier work
[7] = system: PI4K, an EGR receptor, a PDGF receptor, an insulin receptor, an MAP kinase, an S6 kinase; conditions: cited from earlier work
[8] = embryoid bodies, one week of differentiation, FIG. 7
[9] = two weeks of differentiation culture, FIG. 7
[10] = osteoblasts differentiated from embryoid bodies, FIG. 6

CO[C@H]1C[C@@H]2CC[C@@H](C)[C@@](O)(O2)C(=O)C(=O)N2CCCC[C@H]2C(=O)O[C@H]([C@H](C)C[C@@H]2CC[C@@H](O)[C@H](OC)C2)CC(=O)[C@H](C)/C=C(\C)[C@@H](O)[C@@H](OC)C(=O)[C@H](C)C[C@H](C)/C=C/C=C/C=C/1C [rapamycin]
expression of osteoblast-specific genes, dose comparison ([1]; 20 nM versus 10 nM of rapamycin): greater levels in the presence of 20 nM than 10 nM | expression levels of Osteocalcin and Osteonectin, dose comparison ([1]; 20 nM versus 10 nM rapamycin, FIG. 5): higher at a dose of 20 nM than 10 nM | expression of osteoblast-specific genes [1]: efficiently expressed | expression level of osteoblastic markers [1]: increase in expression level | expression of osterix, BMP2, and osteonectin genes ([1]; two cell lines, adhesion culture, FIG. 5): expressed in both cell lines, but in different patterns | expression of osteoblastic markers Cbfa-1, osteocalcin, and osteoprotegerin ([1]; two independently established cell lines, adhesion culture, compared to an undifferentiated control, FIG. 5): expressed; also recorded: distinctively higher levels | Alizarin-Red staining of differentiated cells ([2]; cells induced to differentiate, FIG. 10): positively stained | incubation needed to obtain a mature osteoblast phenotype ([2]; embryoid bodies incubated with rapamycin): additional three weeks | differentiation into mature osteoblasts ([2]; embryoid bodies, 20 nM rapamycin for three weeks): most efficient differentiation | Alizarin Red S staining ([2]; embryoid bodies, three weeks, 20 nM rapamycin, FIG. 10): positively stained | culture period required to maximize the number of Alizarin Red-positive cells ([2]; osteogenic differentiation with rapamycin alone): three weeks | osteogenic differentiation activity relative to conventional osteogenic supplements (cell morphology, expression level of osteoblastic markers) ([3]; FIGS. 2, 7 and 8): as good as or better than | expression level of osterix, BMP2, BMP4, α1 type I collagen, osteocalcin, osteoprotegerin, osteonectin, and osteopontin ([3]; after three weeks of differentiation culture, FIG. 8): continued to increase in expression level | expression level of Cbfa1 ([3]; both human embryonic stem cell lines, after three weeks of differentiation culture): decreased in the expression level | expression levels of osterix, BMP4, α1 type I collagen, osteoprotegerin, and osteopontin ([3]; both human embryonic stem cell lines, three weeks of differentiation culture): similarly increased | expression of BMP2 increased [3, 8]: 1.38 fold | expression of BSP increased [3, 8]: 6.54 fold | expression of Cbfa1 increased [3, 8]: 3.24 fold | expression of osteocalcin increased [3, 8]: 1.84 fold | expression of osteopontin increased [3, 8]: 2.89 fold | expression level of osteoblastic markers ([3]; embryoid bodies, one week of incubation with rapamycin, FIG. 7): increase in expression level | expression level of BMP2 increased [3, 9]: 1.34 fold | expression level of BMP4 increased [3, 9]: 1.18 fold | expression level of BSP increased [3, 9]: 1.63 fold | expression level of Cbfa-1 increased [3, 9]: 2.11 fold | expression level of osteocalcin increased [3, 9]: 1.61 fold | expression level of osteonectin increased [3, 9]: 1.94 fold | expression level of osteopontin increased [3, 9]: 5.81 fold | expression level of osteoprotegerin increased [3, 9]: 2.18 fold | expression level of osterix increased [3, 9]: 1.59 fold | expression level of α1 type I collagen increased [3, 9]: 1.35 fold | cytotoxic effects ([4]; 20 nM of rapamycin added to a culture medium): no cytotoxic effects | cytotoxicity [4]: without the occurrence of cytotoxicity | expression level of osteoblastic markers [5]: increase in expression level | expression level of osteoblast-specific genes compared to untreated control [5]: increase in the expression level | expression levels of osteoblast-specific genes ([5]; FIG. 6): increase the expression levels | osteogenic induction activity among the three compounds ([5]; even at low doses, FIG. 6): most potent induction activity | induction of embryoid bodies to differentiate into osteoblasts relative to LY294002 and AKT inhibitor ([5]; osteoblastic markers, FIG. 6): more effectively induce | amounts of marker genes expressed relative to LY294002 or an AKT inhibitor [5, 10]: as great as or greater than | diversity of expressed marker genes (BMP2, osteocalcin, Cbfa-2, osterix, osteoprotegerin, GATA2, CMP) [5, 10]: highest diversity | expression of osterix and osteoprotegerin [5, 10]: expressed at high levels | ability to induce osteogenic differentiation relative to conventional osteogenic supplements ([6]; FIG. 9): as good as or better than | number of cells differentiated into osteoblasts (BSP or osteocalcin antibody) relative to conventional osteogenic supplements ([6]; FIG. 9): same or greater number | immunofluorescent staining with antibodies to BSP and osteocalcin ([6]; embryoid bodies, three weeks, 20 nM rapamycin): positively stained

CCCCCCCCCCCCCCCCCCOC[C@H](COC(=O)OC1C(O)C(O)C(O)C(CO)C1O)OC (stereo partly drawn) [AKT inhibitor]
expression of osteoblast-specific genes [1]: efficiently expressed | expression level of osteoblastic markers [1]: increase in expression level | cytotoxicity [4]: without the occurrence of cytotoxicity | expression level of osteoblastic markers [5]: increase in expression level | expression level of osteoblast-specific genes compared to untreated control [5]: increase in the expression level | expression levels of osteoblast-specific genes ([5]; FIG. 6): increase the expression levels | expression of osterix and osteoprotegerin [5, 10]: expressed at high levels

O=c1cc(N2CCOCC2)oc2c(-c3ccccc3)cccc12 [LY294002]
expression of osteoblast-specific genes [1]: efficiently expressed | expression level of osteoblastic markers [1]: increase in expression level | inhibition of PI3K (PI3K): inhibits PI3K | inhibition of PI4K, an EGR receptor, a PDGF receptor, an insulin receptor, an MAP kinase, an S6 kinase [7]: does not inhibit | cytotoxicity [4]: without the occurrence of cytotoxicity | expression level of osteoblastic markers [5]: increase in expression level | expression level of osteoblast-specific genes compared to untreated control [5]: increase in the expression level | expression levels of osteoblast-specific genes ([5]; FIG. 6): increase the expression levels | expression of osterix and osteoprotegerin [5, 10]: expressed at high levels
